Assay [1] addresses T1, y-mtRNAP–Mtf1 (ΔN100 y-mtRNAP with Mtf1) (Saccharomyces cerevisiae, UniProt P13433).
T1 construct: gene RPO41; RPO41 lacking 100 N-terminal residues, His6 tag removed by TEV; Mtf1 His6-tagged (removal not described); both from E. coli; complex assembled on pre-melted promoter DNA; with Mitochondrial transcription factor 1
T1 sequence (P13433 101-1351): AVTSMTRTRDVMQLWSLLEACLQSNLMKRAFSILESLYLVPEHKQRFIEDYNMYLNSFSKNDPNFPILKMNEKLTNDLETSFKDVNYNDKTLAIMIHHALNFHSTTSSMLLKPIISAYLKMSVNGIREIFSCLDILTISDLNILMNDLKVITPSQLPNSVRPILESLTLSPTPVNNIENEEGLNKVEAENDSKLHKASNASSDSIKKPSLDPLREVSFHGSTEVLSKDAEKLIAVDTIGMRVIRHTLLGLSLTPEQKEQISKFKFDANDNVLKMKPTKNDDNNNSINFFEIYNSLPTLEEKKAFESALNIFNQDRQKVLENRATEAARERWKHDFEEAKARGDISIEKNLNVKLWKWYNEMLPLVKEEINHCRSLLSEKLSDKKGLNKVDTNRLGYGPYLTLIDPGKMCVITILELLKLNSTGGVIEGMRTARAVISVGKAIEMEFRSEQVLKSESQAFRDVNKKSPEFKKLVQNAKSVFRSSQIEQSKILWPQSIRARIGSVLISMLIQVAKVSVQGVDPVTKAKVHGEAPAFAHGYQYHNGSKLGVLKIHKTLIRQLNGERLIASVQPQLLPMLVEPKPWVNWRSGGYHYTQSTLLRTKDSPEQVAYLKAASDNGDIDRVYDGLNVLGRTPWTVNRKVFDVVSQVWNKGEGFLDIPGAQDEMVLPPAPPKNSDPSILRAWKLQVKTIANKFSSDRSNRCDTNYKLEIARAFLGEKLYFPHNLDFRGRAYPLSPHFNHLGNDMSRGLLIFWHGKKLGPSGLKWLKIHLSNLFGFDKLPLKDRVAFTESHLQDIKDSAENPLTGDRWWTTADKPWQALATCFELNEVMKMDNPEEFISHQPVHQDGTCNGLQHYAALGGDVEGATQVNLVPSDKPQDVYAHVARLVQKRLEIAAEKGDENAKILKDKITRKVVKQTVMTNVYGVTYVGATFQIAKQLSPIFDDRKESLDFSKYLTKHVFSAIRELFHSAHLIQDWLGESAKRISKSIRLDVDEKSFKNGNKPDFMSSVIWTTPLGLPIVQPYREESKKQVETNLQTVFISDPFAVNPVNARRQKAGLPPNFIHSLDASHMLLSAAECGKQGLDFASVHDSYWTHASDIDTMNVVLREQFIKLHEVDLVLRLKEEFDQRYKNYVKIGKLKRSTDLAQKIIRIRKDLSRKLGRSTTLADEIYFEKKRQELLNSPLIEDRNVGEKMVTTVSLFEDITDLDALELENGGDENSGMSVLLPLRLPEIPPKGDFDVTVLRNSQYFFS
T1 sequence (P14908 2-341 partner): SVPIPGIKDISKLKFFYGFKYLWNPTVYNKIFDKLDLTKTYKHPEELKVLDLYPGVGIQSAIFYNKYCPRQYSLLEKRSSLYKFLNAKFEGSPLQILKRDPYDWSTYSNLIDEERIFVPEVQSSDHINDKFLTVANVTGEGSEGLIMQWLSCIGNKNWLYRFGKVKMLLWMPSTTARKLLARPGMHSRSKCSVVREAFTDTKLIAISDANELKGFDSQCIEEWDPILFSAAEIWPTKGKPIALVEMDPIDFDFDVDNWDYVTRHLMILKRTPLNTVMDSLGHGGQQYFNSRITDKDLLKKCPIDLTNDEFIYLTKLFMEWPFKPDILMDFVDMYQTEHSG
As to the kind of experiment: cryo-EM structure (IC2, […] Å). It counts as binding. The conditions noted are these: pre-melted 33-bp bubble promoter DNA; Mg2+; pH 7.0; 4 °C; two GTP at +1 (P site) and +2 (N site) of polymerase active site.

In assay [2] the target is T2, ΔN100 y-mtRNAP (yeast mitochondrial RNA polymerase, Rpo41, 100 amino-terminal residues deleted) (S. cerevisiae, UniProt P13433 101-1351).
T2 construct: S. cerevisiae mitochondrial RNA polymerase Rpo41 (y-mtRNAP), UniProt P13433; 100 amino-terminal residues deleted; end residue S1351; Plasmid ProEXHTB; In the structures the chain is traced only from I386 (A407 in IC4) to S1351 with gaps; source: E. coli BL21 RIL Codon Plus, purified (DEAE/Ni-Sepharose, heparin, TEV cleavage, second Ni-Sepharose flow-through)
T2 sequence (looked up): T1 sequence (P13433 101-1351)
Briefly: cryo-EM structure; PmIC of ΔN100 y-mtRNAP, Mtf1 and pre-melted bubble promoter DNA (molar ratio 1:1.2:1.2, 2 h, 4 °C), purified by SEC, then incubated with NTPs or pppGpG 2 h at 4 °C to give IC2, IC4-IC8 and IC8'; 50 mM Bis-tris propane pH 7.0, 100 mM NaCl, 5 mM MgCl2, 1 mM EDTA, 2 mM DTT. The conditions noted are these: both partners purified. (In general: SEC sorts molecules by how far they enter the pores of the column.)

Turning to `Nc1nc2c(ncn2[C@@H]2O[C@H](COP(=O)(O)OP(=O)(O)OP(=O)(O)O)[C@@H](O)[C@H]2O)c(=O)[nH]1` [GTP], the “cryo-EM structure (IC2, 3.47 Å)” value in assay [1] is “IC2 was captured with two GTP molecules bound at the transcription start site poised for catalysis”.

B1: Mtf1 (yeast mitochondrial transcription factor) (natural protein, S. cerevisiae)
chain: T1 sequence (P14908 2-341 partner)
notes: S. cerevisiae Mtf1, mitochondrial transcription factor; wild type; traced in the structures from S2 to at most G341 (end residue); Plasmid pTrcHisC; No removal of the His6 tag is described; N-terminal domain residues 1-252, C-terminal domain residues 255-341 are named, so the whole protein is likely; source: E. coli BL21, purified (DEAE/Ni-Sepharose, heparin-Sepharose)
Consider B1, for which, in assay [2], the binding result is “binds”.

The record behind these values is PMC10600007, “Structures illustrate step-by-step mitochondrial transcription initiation” (Nature, 2023).
